Usually melting point stands for the temperature, or range, at which the solid turns liquid.

`CC(C)(C)OC(=O)N[C@H]1C[C@@H]1c1ccc(C(=O)C(C)(C)NC(=O)c2c(F)cccc2F)cc1` (racemic) [Compound 19.062, trans-tert-Butyl N-[2-[4-[2-[(2,6-difluorobenzoyl)amino]-2-methyl-propanoyl]phenyl]cyclopropyl]carbamate] gave a melting point of 197 to 198 °C.
Regarding `CC(C)(NC(=O)c1c(F)cccc1F)C(=O)c1ccc([C@H]2C[C@@H]2C(F)(F)F)cc1` (racemic) [Compound 19.003, N-[1,1-dimethyl-2-oxo-2-[4-[trans-2-(trifluoromethyl)-1-cyclopropyl]phenyl]ethyl]-2,6-difluoro-benzamide], the melting point was 65 to 82 °C.
The compound `CC(C)(NC(=O)c1c(F)cccc1F)C(=O)c1ccc([C@H]2C[C@@H]2C(=O)O)cc1` (racemic) [Compound 19.061, trans-2-[4-[2-[(2,6-Difluorobenzoyl)amino]-2-methyl-propanoyl]phenyl]cyclopropane carboxylic acid] gave a melting point of 115 to 116 °C.
The figure for `CC(C)(NC(=O)c1c(F)cccc1F)C(=O)c1ccc(C2CC2)cc1` [Compound 19.001, N-[2-(4-cyclopropylphenyl)-1,1-dimethyl-2-oxo-ethyl]-2,6-difluoro-benzamide] is 121 to 123 °C.

For the origin of these results see patent US9738595B2, “Carboxamide compounds” (SYNGENTA PARTICIPATIONS AG, priority 2013, dated 2017).
